Key:
Test in all cases: relative viability (nuclei count vs DMSO), 5 days (fraction); higher = more cells survive
Dactolisib + Dasatinib = compound: Cn1c(=O)n(-c2ccc(C(C)(C)C#N)cc2)c2c3cc(-c4cnc5ccccc5c4)ccc3ncc21 [Dactolisib] + Cc1nc(Nc2ncc(C(=O)Nc3c(C)cccc3Cl)s2)cc(N2CCN(CCO)CC2)n1 [Dasatinib] (partner 0.075 µM)
Method in brief: (§1)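 Medians of duplicate plates are given as relative viability. That measure is the nuclei count in treated wells divided by the count in vehicle wells. Counts were taken on 4× images of lung cancer cell lines in 1536-well plates, 5 days after pin-tool dosing the day after seeding with one drug alone or a fixed anchor-drug dose plus five library-drug doses (not always all listed) in √10 steps.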

Dactolisib + Luminespib = compound: Cn1c(=O)n(-c2ccc(C(C)(C)C#N)cc2)c2c3cc(-c4cnc5ccccc5c4)ccc3ncc21 [Dactolisib] + CCNC(=O)c1noc(-c2cc(C(C)C)c(O)cc2O)c1-c1ccc(CN2CCOCC2)cc1 [Luminespib] (partner 0.01 µM)
Method in brief: as §1

AZ505 + Navitoclax = compound: C1CCC(CC1)N(CCNCCC2=C3C(=C(C=C2)O)NC(=O)CO3)C(=O)CCNCCC4=CC(=C(C=C4)Cl)Cl [AZ505] + CC1(C)CCC(c2ccc(Cl)cc2)=C(CN2CCN(c3ccc(C(=O)NS(=O)(=O)c4ccc(N[C@H](CCN5CCOCC5)CSc5ccccc5)c(S(=O)(=O)C(F)(F)F)c4)cc3)CC2)C1 [Navitoclax] (partner 0.5 µM)
Method in brief: as §1

AZ505 + Lapatinib = compound: C1CCC(CC1)N(CCNCCC2=C3C(=C(C=C2)O)NC(=O)CO3)C(=O)CCNCCC4=CC(=C(C=C4)Cl)Cl [AZ505] + CS(=O)(=O)CCNCc1ccc(-c2ccc3ncnc(Nc4ccc(OCc5cccc(F)c5)c(Cl)c4)c3c2)o1 [Lapatinib] (partner 2 µM)
Method in brief: as §1

Row | Cell Line | relative viability (Dactolisib + Dasatinib; first compound 0.002 µM) | relative viability (Dactolisib + Dasatinib; first compound 0.006325 µM) | relative viability (Dactolisib + Dasatinib; first compound 0.02 µM) | relative viability (Dactolisib + Dasatinib; first compound 0.06325 µM) | relative viability (Dactolisib + Dasatinib; first compound 0.2 µM) | relative viability (Dactolisib + Luminespib; first compound 0.002 µM) | relative viability (Dactolisib + Luminespib; first compound 0.006325 µM) | relative viability (Dactolisib + Luminespib; first compound 0.02 µM) | relative viability (Dactolisib + Luminespib; first compound 0.06325 µM) | relative viability (Dactolisib + Luminespib; first compound 0.2 µM) | relative viability (AZ505 + Navitoclax; first compound 0.08 µM) | relative viability (AZ505 + Navitoclax; first compound 0.253 µM) | relative viability (AZ505 + Navitoclax; first compound 0.8 µM) | relative viability (AZ505 + Navitoclax; first compound 2.53 µM) | relative viability (AZ505 + Navitoclax; first compound 8 µM) | relative viability (AZ505 + Lapatinib; first compound 0.08 µM) | relative viability (AZ505 + Lapatinib; first compound 0.253 µM) | relative viability (AZ505 + Lapatinib; first compound 0.8 µM) | relative viability (AZ505 + Lapatinib; first compound 2.53 µM) | relative viability (AZ505 + Lapatinib; first compound 8 µM)
1 | NCI-H1975 | 0.35 | 0.305 | 0.246 | 0.167 | 0.135 | 0.133 | 0.157 | 0.181 | 0.144 | 0.123 | 1.02 | 0.99 | 1.05 | 1.03 | 1.13 | 0.773 | 0.82 | 0.858 | 0.9 | 0.885
2 | NCI-H1623 | 0.518 | 0.585 | 0.528 | 0.412 | 0.379 | 0.604 | 0.491 | 0.462 | 0.308 | 0.275 |  |  |  |  |  |  |  |  |  | 
3 | HCC-44 |  |  |  |  |  | 0.914 | 1.04 | 0.943 | 0.379 | 0.644 | 1 | 0.963 | 0.927 | 1.01 | 0.939 | 0.926 | 1.09 | 0.974 | 1.11 | 1.06
4 | NCI-H1703 |  |  |  |  |  |  |  |  |  |  | 1.05 | 1.36 | 1.32 | 1.31 | 1.55 | 1 | 1.26 | 1.03 | 1.2 | 1.28
5 | Calu-6 |  |  |  |  |  |  |  |  |  |  | 0.778 | 0.818 | 0.799 | 0.897 | 0.937 | 0.925 | 1.17 | 1.07 | 1.02 | 1.11
6 | EBC-1 |  |  |  |  |  |  |  |  |  |  | 0.353 | 0.442 | 0.405 | 0.435 | 0.431 | 0.267 | 0.243 | 0.194 | 0.19 | 0.219
7 | NCI-H358 | 0.162 | 0.157 | 0.191 | 0.0796 | 0.0694 | 0.399 | 0.289 | 0.273 | 0.203 | 0.111 |  |  |  |  |  | 0.408 | 0.474 | 0.416 | 0.371 | 0.435
8 | HCC-78 | 0.427 | 0.409 | 0.336 | 0.399 | 0.224 |  |  |  |  |  |  | 0.852 | 0.832 | 0.919 | 0.818 |  | 0.643 | 0.645 | 1.2 | 0.86
9 | IA-LM |  |  |  |  |  |  |  |  |  |  | 0.622 | 0.943 | 0.703 | 0.779 | 0.872 | 0.629 | 0.935 | 0.912 | 0.656 | 0.884
10 | NCI-H650 | 0.539 | 0.432 | 0.449 | 0.314 | 0.305 | 0.779 | 0.778 | 0.787 | 0.443 | 0.369 |  |  |  |  |  | 0.849 | 0.925 | 1.18 | 1.06 | 1.06
11 | ChaGo-K-1 | 0.584 | 0.56 | 0.597 | 0.523 | 0.556 | 0.622 | 0.562 | 0.582 | 0.39 | 0.463 | 1.02 | 0.856 | 1.04 | 1.14 | 1.07 |  |  |  |  | 
12 | NCI-H2342 | 0.298 | 0.294 | 0.348 | 0.31 | 0.284 | 0.677 | 0.634 | 0.653 | 0.495 | 0.437 |  |  |  |  |  |  |  |  |  | 
13 | NCI-H1299 |  |  |  |  |  |  |  |  |  |  | 1.02 | 0.991 | 0.974 | 1.02 | 1 | 0.918 | 1.05 | 0.923 | 0.897 | 0.978
14 | SW 900 | 0.431 | 0.455 | 0.694 | 0.265 | 0.174 | 0.17 | 0.2 | 0.157 | 0.174 | 0.169 |  |  |  |  |  |  |  |  |  | 
15 | NCI-H522 | 0.993 | 0.791 | 0.822 | 0.689 | 0.581 | 1.15 | 1.17 | 1.22 | 0.659 | 0.596 |  |  |  |  |  |  |  |  |  | 
16 | HCC-366 | 0.598 | 0.565 | 0.597 | 0.341 | 0.136 |  |  |  |  |  | 1.03 | 0.948 | 1.02 | 1.12 | 1.06 | 1.01 | 1.01 | 0.903 | 0.986 | 1.06
17 | A549 |  |  |  |  |  |  |  |  |  |  | 1.2 | 1.23 | 1.14 | 1.2 | 1.32 | 0.916 | 0.931 | 0.966 | 0.929 | 0.955
18 | NCI-H661 | 0.562 | 0.744 | 0.483 | 0.296 | 0.286 | 0.929 | 0.99 | 0.866 | 0.391 | 0.496 |  |  |  |  |  | 0.468 | 0.502 | 0.447 | 0.477 | 0.499
19 | NCI-H1563 | 0.498 | 0.466 | 0.47 | 0.474 | 0.458 | 0.535 | 0.532 | 0.511 | 0.47 | 0.507 |  |  |  |  |  | 0.836 | 0.882 | 0.998 | 0.865 | 0.905
20 | ABC-1 | 0.57 | 0.486 | 0.416 | 0.392 | 0.282 | 0.496 | 0.59 |  | 0.257 | 0.366 |  |  |  |  |  |  | 1.1 | 1.11 | 1.12 | 1.23
21 | LCLC-103H | 0.529 | 0.422 | 0.45 | 0.429 | 0.307 | 1.03 | 0.905 | 0.844 | 0.483 | 0.444 |  |  |  |  |  |  |  |  |  | 
22 | NCI-H441 | 0.729 | 0.477 | 0.527 | 0.357 | 0.205 | 0.446 | 0.331 | 0.305 | 0.285 | 0.206 | 0.691 | 0.682 | 0.545 | 0.716 | 0.505 |  |  |  |  | 
